Data as given in BindingDB's records for patent US20250034169 (Sunshine Lake Pharma Co., 2025).

What was measured:
[1] = target: GTPase KRas [G12D]/RAF proto-oncogene serine/threonine-protein kinase (Homo sapiens, UniProt P01116+P04049, G12D); test: KRAS G12D/cRAF Binding Assay
Description: (§1) (1) Compound was prepared with DMSO, and diluted by 3-fold gradient with DMSO.(2) 0.1 μl of serial dilutions of the compound was added to a 384-well plate.(3) 5 μl of Tag2-KRASG12D>P at a specific concentration was added to the 384-well plate, and the plate was centrifuged at 1000 rpm for 1 min.(4) Then 5 μl of Tag1-cRAF at a specific concentration was added to the 384-well plate, and the plate was centrifuged at 1000 rpm for 1 min.(5) The plate was incubated at 25° C. for 15 min.(6) 10 μl of the mixture of anti-Tag1-Tb3+ and anti-Tag2-XL665 was added to the 384-well plate.(7) The plate was centrifuged at 1000 rpm for 1 min and incubated at 4° C. for 3 h.(8) The 665/615 nm ratio was read by a microplate reader.(9) Data analysis: The log value of the compound concentration was taken as the abscissa, and the 665/615 nm ratio was used as the ordinate, the data were analyzed by GraphPad Prism 8.0 software.

[2] = target: GTPase KRas (G12D) and Son of Sevenless Homolog 1 (SOS) (Homo sapiens, UniProt P01116+Q07889, G12D); test: KRAS G12D/SOS1 Binding Assay
Description: as §1, with “Tag1-SOS1” for “Tag1-cRAF”

Which results are given for `C#Cc1c(F)ccc2cc(O)cc(-c3nc(C#C)c4c(N5CC6CCC(C6)C5)nc(OC[C@@H]5CCCN5C)nc4c3F)c12` [US20250034169, Compound 51]?
IC50 [1]: 11.1 nM; IC50 [2]: 20.8 nM

`C#Cc1c(F)ccc2cc(O)cc(-c3nc(C#CCCC(C)C)c4c(N5CC6CCC(C6)C5)nc(OC[C@@]56CCCN5C[C@H](F)C6)nc4c3F)c12` [US20250034169, Compound 30] was tested. Which IC50 [1] did it give?
Its IC50 is 8.8 nM.

And the IC50 [2]?
The IC50 was 13.4 nM.

Which results are given for `C#Cc1c(F)ccc2cc(O)cc(-c3nc(C#C)c4c(N5CC6CC(C6)C5)nc(OC[C@@]56CCCN5C[C@H](F)C6)nc4c3F)c12` [US20250034169, Compound 41]?
IC50 [1]: 22 nM; IC50 [2]: 31.4 nM

With `C#Cc1c(F)ccc2cc(O)cc(-c3nc(C#C)c4c(N5C6CCCC5CC6)nc(OCC5(CN(C)C)CC5)nc4c3F)c12` [US20250034169, Compound 52] as the compound, how does the IC50 [1] read?
Its IC50 is 7.7 nM.

And the IC50 [2]?
The IC50 was 15.2 nM.

For `C#Cc1c(F)ccc2cc(O)cc(-c3nc(C#CCC)c4c(N5CC6CCC(C6)C5)nc(OC[C@@]56CCCN5C[C@H](F)C6)nc4c3F)c12` [US20250034169, Compound 24], which IC50 [1] is on record?
The IC50 was 13.6 nM.

And the IC50 [2]?
The IC50 was 15.1 nM.

How did the IC50 [1] turn out when `[2H]C([2H])([2H])c1nc(-c2cc(O)cc3ccc(F)c(C#C)c23)c(F)c2nc(OC[C@@]34CCCN3C[C@H](F)C4)nc(N3CC4CCC(C4)C3)c12` [US20250034169, Compound 11] was run?
Its IC50 is 9.2 nM.

What about the IC50 [2] of the same compound?
The IC50 was 19.8 nM.

Which results are given for `C#Cc1c(F)ccc2cc(O)cc(-c3nc(C#CCC(C)C)c4c(N5CC6CCC(C6)C5)nc(OC[C@@]56CCCN5C[C@H](F)C6)nc4c3F)c12` [US20250034169, Compound 29]?
IC50 [1]: 14.7 nM; IC50 [2]: 15.9 nM

Which results are given for `C#Cc1c(F)ccc2cc(O)cc(-c3nc(OCCC(F)(F)F)c4c(N5CC6CCC(C6)C5)nc(OC[C@@]56CCCN5C[C@H](F)C6)nc4c3F)c12` [US20250034169, Compound 9]?
IC50 [1]: 8.8 nM; IC50 [2]: 12.6 nM

What does the source list for `C#Cc1c(F)ccc2cc(O)cc(-c3nc(C#CCOC)c4c(N5CC6CCC(C6)C5)nc(OC[C@@]56CCCN5C[C@H](F)C6)nc4c3F)c12` [US20250034169, Compound 25]?
IC50 [1]: 15 nM; IC50 [2]: 16.8 nM

For `C#Cc1c(F)ccc2cc(O)cc(-c3nc(C#CC4CCCC4)c4c(N5CC6CCC(C6)C5)nc(OC[C@@]56CCCN5C[C@H](F)C6)nc4c3F)c12` [US20250034169, Compound 28], which IC50 [1] is on record?
The IC50 was 11.1 nM.

And the IC50 [2]?
Its IC50 is 11.5 nM.

Which IC50 [1] does the source give for `C#Cc1c(F)ccc2cc(O)cc(-c3nc(C#C)c4c(N5CC6CCC(C6)C5)nc(OCCC(F)(F)F)nc4c3F)c12` [US20250034169, Compound 55] here?
Its IC50 is 9.8 nM.

And the IC50 [2]?
The IC50 was 14.8 nM.

What does the source list for `C#Cc1c(F)ccc2cc(O)cc(-c3nc(OCC)c4c(N5CC6CCC(C6)C5)nc(OC[C@@]56CCCN5C[C@H](F)C6)nc4c3F)c12` [US20250034169, Compound 12]?
IC50 [1]: 9.7 nM; IC50 [2]: 10.3 nM

Which results are given for `C#Cc1c(F)ccc2cc(O)cc(-c3nc(C(=O)OCC)c4c(N5CC6CCC(C6)C5)nc(OC[C@@]56CCCN5C[C@H](F)C6)nc4c3F)c12` [US20250034169, Compound 13]?
IC50 [1]: 5.1 nM; IC50 [2]: 11.3 nM

What does the source list for `C#Cc1c(F)ccc2cc(O)cc(-c3nc(C#C)c4c(N5CC6CCC(C6)C5)nc(OC[C@]56CCCN5C[C@H](F)C6)nc4c3F)c12` [US20250034169, Compound 49]?
IC50 [1]: 6.9 nM; IC50 [2]: 15.7 nM

With `C#Cc1c(F)ccc2cc(O)cc(-c3nc(C#C)c4c(N5CCC[C@@H](C)C5)nc(OC[C@@]56CCCN5C[C@H](F)C6)nc4c3F)c12` [US20250034169, Compound 43] as the compound, how does the IC50 [1] read?
The IC50 was 16.3 nM.

What about the IC50 [2] of the same compound?
Its IC50 is 24.1 nM.

Which IC50 [1] does the source give for `C#Cc1c(F)ccc2cc(O)cc(-c3nc(OCCOC)c4c(N5CC6CCC(C6)C5)nc(OC[C@@]56CCCN5C[C@H](F)C6)nc4c3F)c12` [US20250034169, Compound 10] here?
Its IC50 is 8.7 nM.

And the IC50 [2]?
The IC50 was 13.9 nM.

Which results are given for `C#Cc1c(F)ccc2cc(O)cc(-c3nc(C#C)c4c(N5CC6CCC(C6)C5)nc(OC[C@H]5CCCN5C)nc4c3F)c12` [US20250034169, Compound 50]?
IC50 [1]: 19.1 nM; IC50 [2]: 36.2 nM

For `C#Cc1c(F)ccc2cc(O)cc(-c3nc(C#C)c4c(N5C[C@H]6CC[C@@H]5C6)nc(OC[C@@]56CCCN5C[C@H](F)C6)nc4c3F)c12` [US20250034169, Compound 44], which IC50 [1] is on record?
The IC50 was 15.2 nM.

And the IC50 [2]?
The IC50 was 29.6 nM.

With `C#Cc1c(F)ccc2cc(O)cc(-c3nc(C#C)c4c(N5C6CCCC5CC6)nc(OCC5(CN6CCCCC6)CC5)nc4c3F)c12` [US20250034169, Compound 53] as the compound, how does the IC50 [1] read?
Its IC50 is 4.3 nM.

What about the IC50 [2] of the same compound?
Its IC50 is 14.6 nM.

What does the source list for `C#Cc1c(F)ccc2cc(O)cc(-c3nc(C#CCCC#N)c4c(N5CC6CCC(C6)C5)nc(OC[C@@]56CCCN5C[C@H](F)C6)nc4c3F)c12` [US20250034169, Compound 31]?
IC50 [1]: 24.6 nM; IC50 [2]: 34.6 nM

For `C#Cc1nc(-c2cc(O)cc3ccc(F)c(CC)c23)c(F)c2nc(OC[C@@]34CCCN3C[C@H](F)C4)nc(N3CC4CCC(C4)C3)c12` [US20250034169, Compound 65], which IC50 [1] is on record?
The IC50 was 9.9 nM.

What about the IC50 [2] of the same compound?
Its IC50 is 18.5 nM.

With `C#Cc1c(F)ccc2cc(O)cc(-c3nc(C#C)c4c(N5CC6CCC(C6)C5)nc(OCC5CCCC5)nc4c3F)c12` [US20250034169, Compound 56] as the compound, how does the IC50 [1] read?
Its IC50 is 18.5 nM.

And the IC50 [2]?
Its IC50 is 15.7 nM.
